Assay results from paper PMC7379272, “Functional analysis of UGT201D3 associated with abamectin resistance in Tetranychus cinnabarinus (Boisduval)” (Insect Science, 2018).

Biological target: T1, (UniProt A0A221C6W1)
T1 construct: gene UGT201D3; recombinant pET-28a-UGT201D3q, 15 N-terminal hydrophobic amino acids removed, expressed in E. coli BL21 (DE3), Ni-NTA purified
Test: inhibition of α-naphthol glycosylation by the purified recombinant enzyme, Dixon plot (IC50 […]); HPLC depletion of abamectin
Assay type: biochemical, Tetranychus cinnabarinus

T1 sequence (A0A221C6W1 16-460 limits assumed): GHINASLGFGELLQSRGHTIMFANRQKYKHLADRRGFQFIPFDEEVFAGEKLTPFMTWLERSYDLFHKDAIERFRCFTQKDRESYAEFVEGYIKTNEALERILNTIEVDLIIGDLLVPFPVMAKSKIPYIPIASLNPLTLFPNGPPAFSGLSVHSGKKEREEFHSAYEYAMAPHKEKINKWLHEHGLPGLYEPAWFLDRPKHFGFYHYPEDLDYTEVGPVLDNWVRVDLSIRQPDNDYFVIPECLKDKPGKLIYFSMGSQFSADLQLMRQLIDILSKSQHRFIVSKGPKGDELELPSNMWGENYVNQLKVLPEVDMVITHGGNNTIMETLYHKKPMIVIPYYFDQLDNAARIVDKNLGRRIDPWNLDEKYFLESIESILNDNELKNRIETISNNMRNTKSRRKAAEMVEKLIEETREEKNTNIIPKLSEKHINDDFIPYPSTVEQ

SMILES: CC[C@H](C)[C@H]1O[C@]2(C=C[C@@H]1C)C[C@@H]1C[C@@H](C/C=C(\C)[C@@H](O[C@H]3C[C@H](OC)[C@@H](O[C@H]4C[C@H](OC)[C@@H](O)[C@H](C)O4)[C@H](C)O3)[C@@H](C)/C=C/C=C3\CO[C@@H]4[C@H](O)C(C)=C[C@@H](C(=O)O1)[C@]34O)O2.CO[C@H]1C[C@H](O[C@H]2[C@H](C)O[C@@H](O[C@@H]3/C(C)=C/C[C@@H]4C[C@@H](C[C@]5(C=C[C@H](C)[C@@H](C(C)C)O5)O4)OC(=O)[C@@H]4C=C(C)[C@@H](O)[C@H]5OC/C(=C\C=C\[C@@H]3C)[C@]54O)C[C@@H]2OC)O[C@@H](C)[C@@H]1O [abamectin]
- Ki: 9.9 ± 6.2 µM
